One series relates to MV4-11 AML SQ xenografts. In kind it is in vivo, mouse. The conditions noted are these: MV4-11 xenograft, 5 mg/kg or 10 mg/kg orally once daily for 20 days. The procedure:
Human MV4-11 acute myeloid leukemia (AML) cancer cells (5×10^6) that have FLT-ITD mutations were resuspended in serum-free RPMI1640 medium and Matrigel (ration of 1:1) and subcutaneously injected into the flank of 5-6 weeks old female NOD/SCID/IL-2rg(ko)(NSG). When palpable tumor sizes reached at approximately 50 mm^3, mice were divided into three groups (vehicle=9, 5 mg/kg dose group=8, 10 dose mg/kg group=8). Then, S enantiomer was orally administered at 5 mg/kg or 10 mg/kg with vehicle (10% DMSO+30% Solutol+60% saline), once daily for 20 days. Tumor volumes were calculated by the formula 1/2a×b^2, where a is the long diameter, and b is the short diameter. Tumor volumes correlate with tumor weights. The statistical significance of group differences was analyzed using a Student's t-test with the two-tailed distribution. P values less than 0.05 were considered statistically significant.

The next series deals with MOLM-13 AML cells. Description: MTS cell viability assay. In kind it is cell-based. Here is the method:
IC50 Determinations for Ovarian, Liver, Pancreatic, CML, AML Cancer Cell Lines (See e.g. FIGS. 4, 6A-6C, 21, 22A, 22B, 23, 24A-24C, 25A, 25B and 34): MTS assays were performed for cell viability. SKOV3 ovarian cancer, Huh-7 hepatocellular carcinoma, MIA-PaCa2 pancreatic cancer, KCL-22 CML, T315I mutant KCL-22 CML, MOLM-13 AML and MV4-11 AML cells were seeded in 96-well plates (5000 cells/well for solid tumors, 10000 cells/well for blood tumors), incubated overnight at 37° C. in 5% CO2, and exposed to racemic ETP69 or S enantiomer in a dose-dependent manner for 48 h. Dimethyl sulfoxide (DMSO) was used as the vehicle control. Viable cell numbers were determined by tetrazolium conversion to its formazan dye and absorbance was measured at 490 nm using an automated ELISA plate reader. Each experiment was performed in quadruplicate.

From patent US9856273B2, “ETP derivatives” (priority 2012, dated 2018) come the findings set out here.

For the compound `CN1C(=O)[C@@]23C[C@](C)(C#N)[C@H](c4ccc5c(c4)OCO5)N2C(=O)[C@]1(C)SS3` (single isomer, unassigned) [ETP417], in the series with MV4-11 AML SQ xenografts, the toxicity symptoms result was “no observable toxicity symptoms”.

Turning to `CN1C(=O)[C@@]23C[C@](C)(C#N)[C@H](c4ccc5c(c4)OCO5)N2C(=O)[C@]1(C)SS3` [(S) enantiomer of ETP69, (3S,6S,7S,8aS)-6-(benzo[d][1,3]dioxol-5-yl)-2,3,7-trimethyl-1,4-dioxohexahydro-6H-3,8a-epidithiopyrrolo[1,2-a]pyrazine-7-carbonitrile], the “increase in inhibitory capacity when compared to the (R) enantiomer” value in the series on MOLM-13 AML cells is reported as roughly 4 fold.
